These results are taken from article PMC8333425, “Discovery of a dual Ras and ARF6 inhibitor from a GPCR endocytosis screen” (Nature Communications, 2021).

The assay deals with T1, ARF (Homo sapiens, UniProt P62330).
T1 construct: endogenous in cells; host or cells: HEK293SL
As to the kind of experiment: ARF BRET sensor (GGA3-PBD-RlucII / rGFP-CAAX), AT1R-mediated. It counts as cell-based. The note with it: for AngII-promoted BRET, AT1R-mediated ARF activation: individual experiments. As to the method:
HEK293 cells were transfected with a BRET sensor that monitors the interaction between β-arrestins and the β-appendage of AP-2 (Fig. 2a)[26],[33]. […] The small GTPase ARF6, which binds β-arrestins and facilitates AP-2 and clathrin recruitment at the PM, is also necessary for CCPs initiation and receptor internalization. Therefore, ARF6 activity was assessed using the protein-3 binding domain (PBD) of the golgi-associated, gamma adaptin ear-containing, ARF-binding protein 3 (GGA3) fused to GST (GST-GGA3-PBD) in a pull-down assay, which allows the detection of GTP-bound ARF6 in cells[34] (Fig. 2b). […] This inhibition was selective for ARF6 since 21 had no effect on AT1R-dependent ARF1 activation (Supplementary Fig. 2a). We also devised a BRET assay to quantitatively assess 21’s action on ARF activity. The ARF BRET assay was created using the GGA3-PBD fused to RlucII (GGA3-PBD-RlucII) and the rGFP anchored at the PM (rGFP-CAAX) (Supplementary Fig. 3a). […] 21 blocked ARF’s activation by 40–60% following AT1R stimulation (Fig. 2c).
HEK293SL cells were seeded at a density of 7.5 × 10^5 cells per 100-mm dish and 24 h later, transiently transfected as such. For receptor internalization experiments, cells were transfected with 0.12 μg AT1R-RlucII, B2R-RlucII, or β2AR-RlucII and 0.48 μg of either rGFP-CAAX (to assess removal from the PM) or rGFP-FYVE (to assess accumulation in the endosomes). For β-arrestin recruitment assays, cells were transfected with 0.48 μg of receptor-YFP along with 0.12 μg of β-arrestin-RlucII. For β-arrestin/AP-2 binding experiments, cells were transfected with 1 μg Flag-AT1R, 1 μg β2-Adaptin-YFP, and 0.12 μg β-arrestin2-RlucII. For G protein activation, cells were transfected with 3 μg of sp-Flag-AT1R along with either 4.5 μg of the Gαq-polycistronic BRET sensor or 0.24 μg of the Gαi3-RlucII and 0.6 μg of GFP10-Gγ2 and Gβ1 sensors or 0.12 μg PKN-RBD-RlucII and 0.48 μg of rGFP-CAAX. For PKC activation, cells were transfected with 3 μg of sp-Flag-AT1R and 0.18 μg of the PKC sensor. For GTPase activation experiments, cells were transfected with 1 μg Flag-AT1R, 0.48 μg of rGFP-CAAX, and either 0.12 μg of GGA3-PBD-RlucII, PAK-CRIB-RlucII or Raf-RBD-RlucII. For biosensor validation experiments, cells were additionally transfected with 500 ng Flag-K-Ras-WT, Flag-K-Ras-G12V, Flag-K-Ras-SOS-CAAX, HA-ARF6-WT, HA-ARF6-T27N, Myc-Rac1-WT, Myc-Rac1-Q61L or Myc-Rac1-T17N. For PI3K/Akt activation experiments, cells were transfected with 0.48 μg of rGFP-CAAX and 0.12 μg of Akt (PH)-RlucII. After 18 h of transfection, the media was replaced and cells were divided for subsequent experiments. Cells were detached and seeded onto poly-L-ornithine-coated 96-well flat white bottom plates (BrandTech Scientific) at a density of 2.5 × 10^4 cells per well in media. The next day, cells were washed once with Tyrode’s buffer (140 mM NaCl, 2.7 mM KCl, 1 mM CaCl2, 12 mM NaHCO3, 5.6 mM D-glucose, 0.5 mM MgCl2, 0.37 mM NaH2PO4, 25 mM HEPES, pH 7.4) and left in Tyrode’s buffer. For kinetics of β-arrestin recruitment or β-arrestin binding to receptor and AP-2 experiments, cells were serum starved for 30 min, pretreated with 21 (50 µM) or Barbadin (100 µM) for 30 min, stimulated with 100 nM AngII or 1 µM BK and BRET signals were monitored at indicated times using a Victor X Light plate reader (PerkinElmer). Coelenterazine H (final concentration of 5 µM) was added 3–5 min prior to BRET measurements. Filter set was 460/80 nm and 535/30 nm for detecting the RlucII Renilla luciferase (donor) and YFP (acceptor) light emissions, respectively. The BRET ratio was determined by calculating the ratio of the light emitted by YFP over the light emitted by the RlucII. For G protein activation, cells were serum starved, pretreated with compounds for 30 min, stimulated with 100 nM AngII for 2 min (Gαq, Gαi3, and Rho sensors) or 5 min (PKC sensor). […]
A general note: BRET reads energy transfer from a luciferase to a nearby fluorophore.

Structures are written as SMILES. Where “and” joins values, the source holds several entries; their conditions need not be identical. Identical values can stand only once.

T1 sequence (P62330 2-175): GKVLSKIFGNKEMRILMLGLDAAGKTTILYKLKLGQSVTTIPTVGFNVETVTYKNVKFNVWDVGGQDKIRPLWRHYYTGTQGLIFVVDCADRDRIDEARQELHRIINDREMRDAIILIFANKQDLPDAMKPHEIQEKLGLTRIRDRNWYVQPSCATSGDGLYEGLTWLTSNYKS

What is called IC50 is the midpoint of a concentration-inhibition curve. A higher IC50 goes with lower potency. With `CC(C)C(=O)N1CCN(c2ccc(NC(=O)c3cc4ccccc4o3)cc2Cl)CC1` [Compound 21], the “block of ARF activation following AT1R stimulation (BRET)” value (50 μM) is reported as 40–60%. The compound further showed an IC50 (AT1R, dose-response) of 7 µM. Besides, the “AngII-promoted BRET, AT1R-mediated ARF activation” value reads like this: (Comp 21 50 μM, time 0 min) 0; (Comp 21 50 μM, time 2 min) 0.01817 and 0.0425 and 0.0675; (Comp 21 50 μM, time 5 min) 0.04183 and 0.1107 and 0.06017 and 0.076; (Comp 21 50 μM, time 10 min) 0.04033 and 0.11 and 0.06283 and 0.0785; (Comp 21 (50 μM), time 1 min) 0.04233 and 0.01117 and 0.065. In addition, the “Arf6 MEAN (Fig.4d)” value by setting is: (Log [Comp 21] (M) -4) 20.8744; (Log [Comp21] (M) -4.3) 30.1774; (Log [Comp21] (M) -5) 40.2199; (Log [Comp21] (M) -5.3) 84.9863; (Log [Comp 21] (M) -6) 88.0739; (Log [Comp21] (M) -6.3) 99.6353. The “Arf6 MEAN (Fig.4d)” value (Log [Comp 21] (M) -7) is listed as 93.4599.
